Values quoted from earlier work in patent publication US20080090885A1 (priority 2006, published 2008).

What was measured:
AT1 receptor = molecular target: T1, AT1 receptor (Homo sapiens, UniProt P30556)
T1 sequence (P30556 1-359): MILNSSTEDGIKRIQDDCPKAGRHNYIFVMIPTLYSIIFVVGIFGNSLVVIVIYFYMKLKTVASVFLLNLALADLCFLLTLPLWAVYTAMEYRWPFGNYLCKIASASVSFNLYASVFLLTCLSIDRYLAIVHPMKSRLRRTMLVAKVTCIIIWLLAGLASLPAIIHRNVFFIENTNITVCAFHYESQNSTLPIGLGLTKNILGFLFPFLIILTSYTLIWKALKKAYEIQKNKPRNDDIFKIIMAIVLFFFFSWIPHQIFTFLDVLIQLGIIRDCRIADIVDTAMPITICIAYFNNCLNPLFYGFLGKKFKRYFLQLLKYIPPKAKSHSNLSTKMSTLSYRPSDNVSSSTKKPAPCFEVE

[1] = for half-life: in vivo

half-life [1] | oral bioavailability ([1]; oral) | peak plasma levels (time to peak) ([1]; oral) [h] | Structure (SMILES) | type of AT1 receptor antagonism (AT1 receptor)
6 to 9 h | – | – | CCCCc1nc(Cl)c(C(=O)O)n1Cc1ccc(-c2ccccc2-c2nn[nH]n2)cc1 [EXP-3174, losartan 5-carboxylic acid] | non-competitive AT1 receptor antagonist
about 2 hours | about 33% | 1 | CCCCc1nc(Cl)c(CO)n1Cc1ccc(-c2ccccc2-c2nn[nH]n2)cc1 [Losartan] | potent, competitive AT1 receptor antagonist
